Results reported in patent publication US10167262B2, “Herbicidal substituted 3-arylpyrazoles” (FMC CORPORATION, priority 2014, dated 2019).

Tests used:
Format in all cases: in vivo
[1] = tested on: giant foxtail (Setaria faberii); test: Test A pre-/postemergence greenhouse herbicide test, visual injury rating 0-100
Procedure, shortened: (§1)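 Greenhouse plants received compound either as directed soil spray at planting or as postemergence spray at the one- to two-leaf stage (2–10 cm). Evaluated after about 10 days by visual comparison with untreated controls.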

[2] = tested on: velvetleaf (Abutilon theophrasti); test: as above
Procedure, shortened: as §1

[3] = tested on: barnyardgrass (Echinochloa crus-galli); test: as above
Procedure, shortened: as §1

[4] = tested on: wheat (Triticum aestivum); test: as above
Procedure, shortened: as §1

corn (Zea mays) = test: as above
Procedure, shortened: as §1

[5] = tested on: morningglory (Ipomoea spp.); test: as above
Procedure, shortened: as §1

[6] = tested on: large (Lg) crabgrass (Digitaria sanguinalis); test: as above
Procedure, shortened: as §1

[7] = tested on: pigweed (Amaranthus retroflexus); test: as above
Procedure, shortened: as §1

wild oat (Avena fatua) = test: Test C postemergence greenhouse test, plant response rating 0-100; conditions: for Plant response rating, Oat, Wild: scale 0 to 100
Procedure, shortened: (§2)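 Each weed species was grown in potting medium and sprayed after emergence, when 2–18 cm tall. Ratings, made by eye relative to control pots, were recorded 13–15 days later using a scale where 0 is no effect.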

[8] = tested on: chickweed (common chickweed, Stellaria media); test: as above; conditions: for Plant response rating, Chickweed: scale 0 to 100
Procedure, shortened: as §2

kochia (Kochia scoparia) = test: as above; conditions: for Plant response rating, Kochia: scale 0 to 100
Procedure, shortened: as §2

[9] = tested on: giant foxtail (Setaria faberii); test: Test C pre-/postemergence greenhouse test, plant response rating 0-100
Procedure, shortened: (§3)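 After treatment, pots stay in the greenhouse 13–15 days before each species is compared with untreated controls and given a 0–100 visual score. Preemergence seeds are in loam blended with sand; postemergence plants, 1–4 leaves, are in peat-based medium.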

[10] = tested on: johnsongrass (Sorghum halepense); test: as above
Procedure, shortened: as §3

[11] = tested on: winter wheat (Triticum aestivum); test: as above
Procedure, shortened: as §3

[12] = Postemergence, 250 g ai/ha, scale 0 to 100
[13] = Postemergence, 500 g ai/ha, scale 0 to 100

`CCOC(OCC)(c1cccs1)c1c[nH]nc1-c1cc(Cl)cc(Cl)c1` [Compound 27] was tested, and the “Plant response rating (0 to 100 scale), Foxtail, Giant” value ([1]; Postemergence, 125 g ai/ha) was 0, the “Plant response rating (0 to 100 scale), Foxtail, Giant” value ([1]; Postemergence, 500 g ai/ha) was 0 and the “Foxtail, Giant plant response rating (0 = no effect, 100 = complete control)” value ([1]; Preemergence, 125 g ai/ha) was 0. For the same molecule, the “Plant response rating (0 to 100 scale), Foxtail, Giant” value ([1]; Preemergence, 500 g ai/ha) was 0, the “Plant response rating (0 to 100 scale), Velvetleaf” value ([2]; Postemergence, 125 g ai/ha) was 80 and the “Plant response rating (0 to 100 scale), Velvetleaf” value ([2]; Postemergence, 500 g ai/ha) was 90. The “Velvetleaf plant response rating (0 = no effect, 100 = complete control)” value ([2]; Preemergence, 125 g ai/ha) was 80, the “Plant response rating (0 to 100 scale), Velvetleaf” value ([2]; Preemergence, 500 g ai/ha) was 80 and the “Plant response rating (0 to 100 scale), Barnyardgrass” value ([3]; Postemergence, 125 g ai/ha) was 0. For the same molecule, the “Plant response rating (0 to 100 scale), Barnyardgrass” value ([3]; Postemergence, 500 g ai/ha) was 0, the “Barnyardgrass plant response rating (0 = no effect, 100 = complete control)” value ([3]; Preemergence, 125 g ai/ha) was 0 and the “Plant response rating (0 to 100 scale), Barnyardgrass” value ([3]; Preemergence, 500 g ai/ha) was 0. The “Plant response rating (0 to 100 scale), Wheat” value ([4]; Postemergence, 125 g ai/ha) was 0, the “Plant response rating (0 to 100 scale), Wheat” value ([4]; Postemergence, 500 g ai/ha) was 0 and the “Wheat plant response rating (0 = no effect, 100 = complete control)” value ([4]; Preemergence, 125 g ai/ha) was 0. The “Plant response rating (0 to 100 scale), Wheat” value ([4]; Preemergence, 500 g ai/ha) was 0, the “Plant response rating (0 to 100 scale), Corn” value (corn (Zea mays); Postemergence, 125 g ai/ha) was 0 and the “Plant response rating (0 to 100 scale), Corn” value (corn (Zea mays); Postemergence, 500 g ai/ha) was 0. For the same molecule, the “Corn plant response rating (0 = no effect, 100 = complete control)” value (corn (Zea mays); Preemergence, 125 g ai/ha) was 0, the “Plant response rating (0 to 100 scale), Corn” value (corn (Zea mays); Preemergence, 500 g ai/ha) was 0 and the “Plant response rating (0 to 100 scale), Morningglory” value ([5]; Postemergence, 125 g ai/ha) was 0. For the same molecule, the “Plant response rating (0 to 100 scale), Morningglory” value ([5]; Postemergence, 500 g ai/ha) was 0, the “Morningglory plant response rating (0 = no effect, 100 = complete control)” value ([5]; Preemergence, 125 g ai/ha) was 0 and the “Plant response rating (0 to 100 scale), Morningglory” value ([5]; Preemergence, 500 g ai/ha) was 0. The “Plant response rating (0 to 100 scale), Crabgrass, Large” value ([6]; Postemergence, 125 g ai/ha) was 0, the “Plant response rating (0 to 100 scale), Crabgrass, Large” value ([6]; Postemergence, 500 g ai/ha) was 0 and the “Crabgrass, Large plant response rating (0 = no effect, 100 = complete control)” value ([6]; Preemergence, 125 g ai/ha) was 0. The “Plant response rating (0 to 100 scale), Crabgrass, Large” value ([6]; Preemergence, 500 g ai/ha) was 0, the “Plant response rating (0 to 100 scale), Pigweed” value ([7]; Postemergence, 125 g ai/ha) was 80 and the “Plant response rating (0 to 100 scale), Pigweed” value ([7]; Postemergence, 500 g ai/ha) was 100. For the same molecule, the “Pigweed plant response rating (0 = no effect, 100 = complete control)” value ([7]; Preemergence, 125 g ai/ha) was 100, the “Plant response rating (0 to 100 scale), Pigweed” value ([7]; Preemergence, 500 g ai/ha) was 100 and the “Plant response rating (0 to 100), Oat, Wild” value (wild oat (Avena fatua); 62 g ai/ha) was 0. The “Plant response rating (0 to 100), Oat, Wild” value (wild oat (Avena fatua); 125 g ai/ha) was 0, the “Plant response rating, Oat, Wild” value (wild oat (Avena fatua); 250 g ai/ha) was 5 and the “Plant response rating, Oat, Wild” value (wild oat (Avena fatua); 500 g ai/ha) was 5. For the same molecule, the “Plant response rating (0 to 100), Chickweed” value ([8]; 62 g ai/ha) was 80, the “Plant response rating (0 to 100), Chickweed” value ([8]; 125 g ai/ha) was 85 and the “Plant response rating, Chickweed” value ([8]; 250 g ai/ha) was 90. The “Plant response rating, Chickweed” value ([8]; 500 g ai/ha) was 90, the “Plant response rating (0 to 100), Kochia” value (kochia (Kochia scoparia); 62 g ai/ha) was 80 and the “Plant response rating (0 to 100), Kochia” value (kochia (Kochia scoparia); 125 g ai/ha) was 80. The “Plant response rating, Kochia” value (kochia (Kochia scoparia); 250 g ai/ha) was 90, the “Plant response rating, Kochia” value (kochia (Kochia scoparia); 500 g ai/ha) was 90 and the “Plant response rating (0 to 100), Foxtail, Giant” value ([9]; Postemergence, 62 g ai/ha) was 0. The “Plant response rating (0 to 100), Foxtail, Giant” value ([9]; Postemergence, 125 g ai/ha) was 0, the “Plant response rating, Foxtail, Giant” value [9, 12] was 0 and the “Plant response rating, Foxtail, Giant” value [9, 13] was 0. For the same molecule, the “Plant response rating, Foxtail, Giant” value ([9]; Preemergence, 62 g ai/ha) was 0, the “Plant response rating, Foxtail, Giant” value ([9]; Preemergence, 125 g ai/ha) was 0 and the “Plant response rating, Foxtail, Giant” value ([9]; Preemergence, 250 g ai/ha) was 0. The “Plant response rating, Foxtail, Giant” value ([9]; Preemergence, 500 g ai/ha) was 0, the “Plant response rating (0 to 100), Johnsongrass” value ([10]; Postemergence, 62 g ai/ha) was 0 and the “Plant response rating (0 to 100), Johnsongrass” value ([10]; Postemergence, 125 g ai/ha) was 0. For the same molecule, the “Plant response rating, Johnsongrass” value [10, 12] was 0, the “Plant response rating, Johnsongrass” value [10, 13] was 10 and the “Plant response rating, Johnsongrass” value ([10]; Preemergence, 62 g ai/ha) was 0. The “Plant response rating, Johnsongrass” value ([10]; Preemergence, 125 g ai/ha) was 0, the “Plant response rating, Johnsongrass” value ([10]; Preemergence, 250 g ai/ha) was 0 and the “Plant response rating, Johnsongrass” value ([10]; Preemergence, 500 g ai/ha) was 0. For the same molecule, the “Plant response rating (0 to 100), Wheat” value ([11]; Postemergence, 62 g ai/ha) was 0, the “Plant response rating (0 to 100), Wheat” value ([11]; Postemergence, 125 g ai/ha) was 0 and the “Plant response rating, Wheat” value [11, 12] was 0. For the same molecule, the “Plant response rating, Wheat” value [11, 13] was 0, the “Plant response rating, Wheat” value ([11]; Preemergence, 62 g ai/ha) was 0 and the “Plant response rating, Wheat” value ([11]; Preemergence, 125 g ai/ha) was 0. The “Plant response rating, Wheat” value ([11]; Preemergence, 250 g ai/ha) was 0 and the “Plant response rating, Wheat” value ([11]; Preemergence, 500 g ai/ha) was 0.
